According to US12285012B2, “Compositions comprising pyridine carboxylate herbicides with acetolactate synthase (ALS) inhibitor herbicides” (Corteva Agriscience LLC, priority 2018, dated 2025):
Like-named read-outs stand apart in the source and are kept apart here.

Assays:
[1] = tested on: Canadian thistle (CIRAR, Cirsium arvense); test: Greenhouse postemergence herbicidal effect; assay type: in vivo
Summary of the method: (§1)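 Herbicide mixtures, dosed as g ae/ha for the pyridine carboxylate and g ai/ha for the ALS inhibitor, are applied postemergence with cloquintocet-mexyl safener. Control plants receive solvent blank. Percent injury is assessed by eye 20–22 d later.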

[2] = tested on: spring rape (BRSNN, Brassica napus); test: Greenhouse postemergence herbicidal effect; assay type: in vivo
Summary of the method: (§2)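 Injury was rated visually after 20-22 d on a 0 (none) to 100% (complete kill) scale relative to solvent-sprayed controls, with sub-irrigation to avoid wash-off. Rates were given in g ae/ha or g ai/ha depending on component.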

[3] = tested on: spring wheat (TRZAS); assay type: in vivo, Triticum aestivum
Summary of the method: as §1

[4] = tested on: common sunflower (HELAN, Helianthus annuus); test: Greenhouse postemergence herbicidal effect; assay type: in vivo
Description: (§3) Seeds of the desired test plant species were planted in a 90:10% v/v (volume/volume) mixture of PRO-MIX® BX (Premier Tech Horticulture, Quakertown, PA, USA) and PROFILE® GREENS GRADE™ (Profile Products LLC, Buffalo Grove, IL, USA) planting mixture, which typically has a pH of 5.2 to 6.2 and an organic matter content of at least 50 percent, in plastic pots with a surface area of 103.2 square centimeters (cm^2). In some aspects, to ensure good germination and healthy plants, a fungicide treatment and/or other chemical or physical treatment was applied. The plants were grown for 7-36 days (d) in a greenhouse with an approximate 14-hour (h) photo-period which was maintained at about 23° C. during the day and 22° C. during the night. Nutrients and water were added on a regular basis and supplemental lighting was provided with overhead metal halide 1000-Watt lamps as necessary. The plants were employed for testing when they reached the second or third true leaf stage.
(§4) Emulsifiable concentrates of each of each pyridine carboxylate herbicide (Compound A or Compound B) were prepared at 100 grams acid equivalent per liter (g ae/L). The emulsifiable concentrates also included a safener, cloquintocet-mexyl, at 120 grams active ingredient per liter (g ai/L), unless otherwise noted below. An aliquot of each emulsifiable concentrate was placed in a 25 mL glass vial and diluted with an aqueous mixture of 1.25% (v/v) ACTIROB® B esterified rapeseed oil (Bayer Crop Science, Research Triangle Park, NC, USA) or MSO® Concentrate with LECI-TECH® methylated soybean oil (Loveland Products, Loveland, CO, USA) to obtain concentrated stock solutions at the highest application rate for each herbicide, based upon a 12 milliliter (mL) application volume at a rate of 187 liters per hectare (L/ha). The concentrated stock solutions were further diluted with an aqueous mixture of 1.25% v/v ACTIROB® B or MSO® Concentrate with LECI-TECH® to obtain stock solutions at reduced application rates for each herbicide. Spray solutions of the herbicide combinations (Compound A or Compound B plus ALS herbicide) were prepared by adding weighed amounts or aliquots of the ALS herbicides to the stock solutions of Compound A or Compound B to form 12-mL spray solutions in two- or three-way combinations.
(§5) The spray solutions were applied to the plant material with an overhead Mandel track sprayer equipped with 8002E nozzles calibrated to deliver 187 L/ha over an application area of 0.503 square meters (m^2) at a spray height of 18 inches (43 centimeters (cm)) above the average plant canopy. Control plants were sprayed in the same manner with the solvent blank. All pyridine carboxylate herbicide (component a) application rates are given as “g ae/ha” and all ALS inhibitor (component b) application rates are given as “g ai/ha.”
(§6) The treated plants and control plants were placed in a greenhouse as described above and watered by sub-irrigation to prevent wash-off of the test compounds. After 20-22 d, the condition of the test plants as compared with that of the control plants was determined visually and scored on a scale of 0 to 100 percent where 0 corresponds to no injury and 100 corresponds to complete kill.

[5] = tested on: grain sorghum (SORVU, Sorghum vulgare); test: Greenhouse postemergence herbicidal effect; assay type: in vivo
Description: as §3, §4, §5, §6

[6] = tested on: ivyleaf morningglory (IPOHE, Ipomoea hederacea); test: Greenhouse postemergence herbicidal effect; assay type: in vivo
Description: as §3, §4, §5, §6

[7] = tested on: nutsedge (CYPES, Cyperus esculentus); test: Greenhouse postemergence herbicidal effect; assay type: in vivo
Description: as §3, §4, §5, §6

[8] = tested on: poinsettia (EPHHL, Euphorbia heterophylla); test: Greenhouse postemergence herbicidal effect; assay type: in vivo
Description: as §3, §4, §5, §6

[9] = tested on: annual ryegrass (LOLMG=Lolium multiflorum subsp. gaudini); test: Greenhouse postemergence herbicidal effect; assay type: in vivo; details: 20 g/ha
Description: as §3, §4, §5, §6

[10] = tested on: giant foxtail (SETFA, Setaria faberi); test: Greenhouse postemergence herbicidal effect; assay type: in vivo; details: 20 g/ha
Description: as §3, §4, §5, §6

[11] = tested on: large crabgrass (DIGSA, Digitaria sanguinalis); test: Greenhouse postemergence herbicidal effect; assay type: in vivo; details: 20 g/ha
Description: as §3, §4, §5, §6

[12] = tested on: wild oat (AVEFA, Avena fatua); test: Greenhouse postemergence herbicidal effect; assay type: in vivo; details: 20 g/ha
Description: as §3, §4, §5, §6

[13] = tested on: barnyard grass (ECHCG, Echinochloa crus-galli); test: Greenhouse postemergence herbicidal effect; assay type: in vivo; details: Penoxsulam 20 g/ha
Description: as §3, §4, §5, §6

[14] = tested on: broadleaf signalgrass (BRAPP, Brachiaria platyphylla); test: Greenhouse postemergence herbicidal effect; assay type: in vivo; details: Penoxsulam 20 g/ha
Description: as §3, §4, §5, §6

[15] = tested on: small-flower flatsedge (CYPDI, Cyperus difformis); test: Greenhouse postemergence herbicidal effect; assay type: in vivo; details: Penoxsulam 20 g/ha
Description: as §3, §4, §5, §6

[16] = tested on: R-PAPRH = Papaver rhoeas (corn poppy), herbicide-resistant; test: Greenhouse postemergence herbicidal effect; assay type: in vivo; details: Pyroxsulam 10 g/ha
Summary of the method: as §1

[17] = tested on: Russian thistle (SASKR, Salsola kali); test: Greenhouse postemergence herbicidal effect; assay type: in vivo; details: Pyroxsulam 10 g/ha
Summary of the method: as §1

[18] = tested on: bird's-eye speedwell (VERPE, Veronica persica); test: Greenhouse postemergence herbicidal effect; assay type: in vivo; details: Pyroxsulam 10 g/ha
Summary of the method: as §1

[19] = tested on: chickweed (STEME, Stellaria media); test: Greenhouse postemergence herbicidal effect; assay type: in vivo; details: Pyroxsulam 10 g/ha
Summary of the method: as §1

[20] = tested on: cleavers (GALAP, Galium aparine); test: Greenhouse postemergence herbicidal effect; assay type: in vivo; details: Pyroxsulam 10 g/ha
Summary of the method: as §1

[21] = tested on: corn poppy (PAPRH, Papaver rhoeas); test: Greenhouse postemergence herbicidal effect; assay type: in vivo; details: Pyroxsulam 10 g/ha
Summary of the method: as §1

[22] = tested on: cornflower (CENCY, Cyanus segetum); test: Greenhouse postemergence herbicidal effect; assay type: in vivo; details: Pyroxsulam 10 g/ha
Summary of the method: as §1

[23] = tested on: false chamomile (MATIN, Matricaria inodora); test: Greenhouse postemergence herbicidal effect; assay type: in vivo; details: Pyroxsulam 10 g/ha
Summary of the method: as §1

[24] = tested on: field chamomile (ANTAR, Anthemis arvensis); test: Greenhouse postemergence herbicidal effect; assay type: in vivo; details: Pyroxsulam 10 g/ha
Summary of the method: as §1

[25] = tested on: field violet (VIOAR, Viola arvensis); test: Greenhouse postemergence herbicidal effect; assay type: in vivo; details: Pyroxsulam 10 g/ha
Summary of the method: as §1

[26] = tested on: ivyleaf speedwell (VERHE, Veronica hederifolia); test: Greenhouse postemergence herbicidal effect; assay type: in vivo; details: Pyroxsulam 10 g/ha
Summary of the method: as §1

[27] = tested on: pigweed (AMARE, Amaranthus retroflexus); test: Greenhouse postemergence herbicidal effect; assay type: in vivo; details: Pyroxsulam 15 g/ha
Summary of the method: as §1

[28] = tested on: pineapple weed (MATMT, Matricaria discoidea); test: Greenhouse postemergence herbicidal effect; assay type: in vivo; details: Pyroxsulam 10 g/ha
Summary of the method: as §1

[29] = tested on: purple deadnettle (LAMPU, Lamium purpureum); test: Greenhouse postemergence herbicidal effect; assay type: in vivo; details: Pyroxsulam 10 g/ha
Summary of the method: as §1

[30] = tested on: shepherd's purse (CAPBP, Capsella bursa-pastoris); test: Greenhouse postemergence herbicidal effect; assay type: in vivo; details: Pyroxsulam 10 g/ha
Summary of the method: as §1

[31] = tested on: wild buckwheat (POLCO, Polygonum convolvulus); test: Greenhouse postemergence herbicidal effect; assay type: in vivo
Summary of the method: as §1

[32] = tested on: wild chamomile (MATCH, Matricaria chamomilla); test: Greenhouse postemergence herbicidal effect; assay type: in vivo
Summary of the method: as §1

[33] = tested on: wild mustard (SINAR, Sinapis arvensis); test: Greenhouse postemergence herbicidal effect; assay type: in vivo
Summary of the method: as §1

[34] = tested on: wild pansy (VIOTR, Viola tricolor); test: Greenhouse postemergence herbicidal effect; assay type: in vivo; details: Pyroxsulam 10 g/ha
Summary of the method: as §2

[35] = tested on: winter rape (BRSNW, Brassica napus); test: Greenhouse postemergence herbicidal effect; assay type: in vivo
Summary of the method: as §1

[36] = tested on: common lambsquarters (CHEAL, Chenopodium album L.); test: Greenhouse postemergence herbicidal effect; assay type: in vivo; details: Pyroxsulam 15 g/ha
[37] = tested on: kochia (KCHSC, Kochia scoparia); test: Greenhouse postemergence herbicidal effect; assay type: in vivo
Summary of the method: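 Plants at the second or third true leaf stage received overhead spray at 187 L/ha, with the pyridine carboxylate (plus cloquintocet-mexyl safener) alone or with ALS herbicides in 1.25% v/v crop oil. Rates are in g ae/ha or g ai/ha. Visual injury versus solvent-blank controls was scored 0–100% after 20-22 d in the greenhouse.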

[38] = tested on: winter wheat (TRZAW); test: Greenhouse postemergence crop phytotoxicity; assay type: in vivo, Triticum aestivum; details: Pyroxsulam 10 g/ha
Description: as §3
as §4, with “combinations. […]” for “combinations.”
as §6

[39] = tested on: spring barley (HORVS); assay type: in vivo, Hordeum vulgare
Summary of the method: as §1

[40] = tested on: winter barley (HORVW); test: Greenhouse postemergence crop phytotoxicity; assay type: in vivo, Hordeum vulgare; details: Pyroxsulam 10 g/ha
Description: as §3
as §4, with “combinations. […]” for “combinations.”
as §6

Compound: COc1cc(OC)nc(Oc2cccc(Oc3nc(OC)cc(OC)n3)c2C(=O)O)n1 [Bispyribac, bispyribac]
- % visual injury ([1]; Bispyribac 90 g/ha): 90%
- % visual injury ([2]; Bispyribac 90 g/ha): 88%
- % visual injury ([3]; Bispyribac 90 g/ha): 18%
- % visual injury ([4]; Bispyribac 90 g/ha): 97%
- % visual injury ([5]; Bispyribac 90 g/ha): 73%
- % visual injury ([6]; Bispyribac 90 g/ha): 70%
- % visual injury ([7]; Bispyribac 90 g/ha): 20%
- % visual injury ([8]; Bispyribac 90 g/ha): 95%

Compound: COc1cc(OC)nc(NC(=O)NS(=O)(=O)c2ncccc2C(=O)N(C)C)n1 [Nicosulfuron, nicosulfuron]
- % visual injury, Obs [9]: 96%
- % visual injury, Obs [10]: 100%
- % visual injury, Obs [11]: 65%
- % visual injury, Obs ([7]; 20 g/ha): 40%
- % visual injury, Obs [12]: 96%

Compound: COc1cnc(OC)n2nc(NS(=O)(=O)c3c(OCC(F)F)cccc3C(F)(F)F)nc12 [Penoxsulam, penoxsulam]
- % visual injury Obs [13]: 60%
- % visual injury Obs [14]: 32%
- % visual injury Obs [15]: 17%

Compound: COc1cc(OC)nc(Oc2cccc(Oc3nc(OC)cc(OC)n3)c2C(=O)ON=C(c2ccccc2)c2ccccc2)n1 [Pyribenzoxim, pyribenzoxim]
- % visual injury ([1]; Pyribenzoxim 10 g/ha): 90%
- % visual injury ([2]; Pyribenzoxim 10 g/ha): 90%
- % visual injury ([3]; Pyribenzoxim 10 g/ha): 13%
- % visual injury ([4]; Pyribenzoxim 10 g/ha): 98%
- % visual injury ([5]; Pyribenzoxim 10 g/ha): 73%
- % visual injury ([6]; Pyribenzoxim 10 g/ha): 78%
- % visual injury ([7]; Pyribenzoxim 10 g/ha): 0%
- % visual injury ([8]; Pyribenzoxim 10 g/ha): 100%

Compound: pyroxsulam
- % visual injury ([1]; Pyroxsulam 10 g/ha): 75%
- % visual injury Obs ([1]; Pyroxsulam 15 g/ha): 48%
- % visual injury [16]: 10%
- % visual injury [17]: 100%
- % visual injury [18]: 75%
- % visual injury [19]: 100%
- % visual injury [20]: 60%
- % visual injury [21]: 5%
- % visual injury [22]: 70%
- % visual injury [23]: 65%
- % visual injury [24]: 60%
- % visual injury [25]: 80%
- % visual injury [26]: 70%
- % visual injury Obs [27]: 98%
- % visual injury [28]: 50%
- % visual injury [29]: 50%
- % visual injury [30]: 90%
- % visual injury ([31]; Pyroxsulam 10 g/ha): 93%
- % visual injury Obs ([31]; Pyroxsulam 15 g/ha): 94%
- % visual injury ([32]; Pyroxsulam 10 g/ha): 60%
- % visual injury Obs ([32]; Pyroxsulam 15 g/ha): 53%
- % visual injury ([33]; Pyroxsulam 10 g/ha): 99%
- % visual injury Obs ([33]; Pyroxsulam 15 g/ha): 73%
- % visual injury [34]: 85%
- % visual injury ([35]; Pyroxsulam 10 g/ha): 99%
- % visual injury Obs ([35]; Pyroxsulam 15 g/ha): 68%
- % visual injury Obs [36]: 73%
- Obs % visual injury ([37]; KCHSC, Pyroxsulam 15 g/ha): 13%
- % visual injury ([37]; Pyroxsulam 10 g/ha): 30%
- % visual injury Obs ([37]; Pyroxsulam 15 g/ha): 55%
- % visual injury [38]: 0%
- % visual injury ([3]; Pyroxsulam 10 g/ha): 0%
- % visual injury Obs ([3]; Pyroxsulam 15 g/ha): 0%
- Obs % visual injury ([3]; TRZAS, Pyroxsulam 15 g/ha): 0%
- % visual injury ([39]; Pyroxsulam 10 g/ha): 0%
- % visual injury Obs ([39]; Pyroxsulam 15 g/ha): 0%
- % visual injury [40]: 0%
